Data: patent US9346798B2, “Dihydrobenzoxazine and tetrahydroquinoxaline sodium channel inhibitors” (AMGEN INC., priority 2012, dated 2016)

What was measured:
Assay type in all cases: cell-based
[1] = molecular target: T1, Nav 1.7 (Homo sapiens (Human), UniProt Q15858); assay: Nav 1.7 in vitro assay, IonWorks Quattro (IWQ) population patch-clamp; settings: HEK 293 cells stably transfected with Nav 1.7; 26th pulse to -20 mV
Description: Nav 1.7 and Nav 1.5 In Vitro Assays
HEK 293 cells stably transfected with either Nav 1.7 or with Nav 1.5 were recorded in population patch-clamp mode with the IonWorks® Quattro automated electrophysiology system in accordance with the manufacturer's specifications (Molecular Devices, LLC, Sunnyvale, Calif.). Sodium channel currents were measured in response to a train of depolarizations that induced successively greater inactivation.
Cells were held at −110 mV for three seconds (Nav 1.7) or half a second (Nav 1.5) from a holding voltage of −15 mV, then put through a series of 26 pulses of 150 msec duration to −20 mV at a frequency of 5 Hz. Cells were then left unclamped for a period of 3 to 8 minutes while a single concentration of test compound was added. Cells were then reclamped and put through the same voltage protocol. Current at the end of the 26th pulse to −20 mV was subtracted from the peak current evoked by the 26th pulse to −20 mV to correct for leak current. Percent block was calculated for each concentration in duplicate, and IC50 curves were fitted to percent block as a function of concentration.

[2] = molecular target: T1, Nav 1.7; assay: Nav 1.7 in vitro PX assay, PatchXpress whole cell voltage clamp; settings: HEK 293 cells stably transfected with human Nav1.7; for IC50: partially inactivated state (20 to 50% inactivation); for inhibition at 4.9 µM: HEK293, values marked *, read-out: Nav 1.7 PX percent inhibition at 4.9 μM
Method in brief: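 HEK293 cells stably expressing human Nav1.7, whole-cell voltage clamp at a holding potential giving 20–50% inactivation; currents elicited by 20 msec pulses to −10 mV at 0.1 Hz.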

[3] = molecular target: Nav 1.5 (Homo sapiens (Human), UniProt Q14524); assay: Nav 1.5 in vitro assay, IonWorks Quattro (IWQ) population patch-clamp; settings: HEK 293 cells stably transfected with Nav 1.5; 26th pulse to -20 mV
Chain of Nav 1.5 (Q14524 whole entry): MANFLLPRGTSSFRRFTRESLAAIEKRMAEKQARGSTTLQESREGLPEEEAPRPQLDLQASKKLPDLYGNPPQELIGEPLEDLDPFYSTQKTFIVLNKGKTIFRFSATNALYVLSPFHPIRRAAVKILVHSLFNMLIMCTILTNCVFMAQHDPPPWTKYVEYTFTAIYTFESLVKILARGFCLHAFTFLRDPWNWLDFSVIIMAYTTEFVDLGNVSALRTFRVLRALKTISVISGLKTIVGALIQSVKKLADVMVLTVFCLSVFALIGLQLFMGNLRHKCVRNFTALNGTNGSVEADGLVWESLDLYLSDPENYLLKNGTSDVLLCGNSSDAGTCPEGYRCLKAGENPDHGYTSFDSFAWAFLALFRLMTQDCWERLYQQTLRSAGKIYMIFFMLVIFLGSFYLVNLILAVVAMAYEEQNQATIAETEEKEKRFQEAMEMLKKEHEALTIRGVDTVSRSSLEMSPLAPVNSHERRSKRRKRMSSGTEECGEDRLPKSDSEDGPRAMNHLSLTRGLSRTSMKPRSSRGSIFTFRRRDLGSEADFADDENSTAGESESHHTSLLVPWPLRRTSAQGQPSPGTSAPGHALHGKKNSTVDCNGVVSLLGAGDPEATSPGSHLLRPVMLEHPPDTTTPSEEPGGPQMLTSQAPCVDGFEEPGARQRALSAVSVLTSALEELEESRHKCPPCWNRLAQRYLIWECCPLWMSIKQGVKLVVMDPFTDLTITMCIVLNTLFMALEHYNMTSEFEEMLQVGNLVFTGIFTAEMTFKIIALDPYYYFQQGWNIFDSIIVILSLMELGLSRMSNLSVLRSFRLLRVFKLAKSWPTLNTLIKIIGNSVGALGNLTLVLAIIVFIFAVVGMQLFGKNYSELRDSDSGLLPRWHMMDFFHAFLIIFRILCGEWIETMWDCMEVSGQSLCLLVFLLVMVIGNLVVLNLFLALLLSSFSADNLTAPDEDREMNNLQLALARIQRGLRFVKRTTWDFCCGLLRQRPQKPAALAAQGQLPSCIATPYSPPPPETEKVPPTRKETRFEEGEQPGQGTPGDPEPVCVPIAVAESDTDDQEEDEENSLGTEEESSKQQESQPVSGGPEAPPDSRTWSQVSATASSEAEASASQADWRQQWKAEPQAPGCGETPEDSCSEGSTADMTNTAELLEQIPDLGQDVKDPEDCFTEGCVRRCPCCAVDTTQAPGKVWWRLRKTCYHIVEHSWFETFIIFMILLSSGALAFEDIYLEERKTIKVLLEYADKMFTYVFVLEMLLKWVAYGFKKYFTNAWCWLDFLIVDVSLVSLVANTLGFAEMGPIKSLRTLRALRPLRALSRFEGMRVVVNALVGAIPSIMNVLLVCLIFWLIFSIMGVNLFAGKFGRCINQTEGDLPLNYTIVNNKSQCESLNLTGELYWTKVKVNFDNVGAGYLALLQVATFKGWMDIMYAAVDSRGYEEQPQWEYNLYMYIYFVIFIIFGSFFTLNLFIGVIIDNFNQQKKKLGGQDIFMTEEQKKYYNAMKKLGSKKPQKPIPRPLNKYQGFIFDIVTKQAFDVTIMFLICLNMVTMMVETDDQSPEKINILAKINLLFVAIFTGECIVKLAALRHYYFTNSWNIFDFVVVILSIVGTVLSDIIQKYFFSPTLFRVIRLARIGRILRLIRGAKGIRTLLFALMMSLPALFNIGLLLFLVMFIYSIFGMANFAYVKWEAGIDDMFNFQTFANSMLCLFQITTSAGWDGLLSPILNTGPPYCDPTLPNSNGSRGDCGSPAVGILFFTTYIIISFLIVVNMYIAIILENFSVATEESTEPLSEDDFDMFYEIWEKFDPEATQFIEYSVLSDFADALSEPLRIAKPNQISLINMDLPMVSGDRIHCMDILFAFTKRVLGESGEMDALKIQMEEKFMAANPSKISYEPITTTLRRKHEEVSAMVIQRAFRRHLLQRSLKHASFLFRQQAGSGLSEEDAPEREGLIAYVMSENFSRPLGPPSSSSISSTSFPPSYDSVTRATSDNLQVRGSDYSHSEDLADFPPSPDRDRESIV

T1 sequence (Q15858 whole entry): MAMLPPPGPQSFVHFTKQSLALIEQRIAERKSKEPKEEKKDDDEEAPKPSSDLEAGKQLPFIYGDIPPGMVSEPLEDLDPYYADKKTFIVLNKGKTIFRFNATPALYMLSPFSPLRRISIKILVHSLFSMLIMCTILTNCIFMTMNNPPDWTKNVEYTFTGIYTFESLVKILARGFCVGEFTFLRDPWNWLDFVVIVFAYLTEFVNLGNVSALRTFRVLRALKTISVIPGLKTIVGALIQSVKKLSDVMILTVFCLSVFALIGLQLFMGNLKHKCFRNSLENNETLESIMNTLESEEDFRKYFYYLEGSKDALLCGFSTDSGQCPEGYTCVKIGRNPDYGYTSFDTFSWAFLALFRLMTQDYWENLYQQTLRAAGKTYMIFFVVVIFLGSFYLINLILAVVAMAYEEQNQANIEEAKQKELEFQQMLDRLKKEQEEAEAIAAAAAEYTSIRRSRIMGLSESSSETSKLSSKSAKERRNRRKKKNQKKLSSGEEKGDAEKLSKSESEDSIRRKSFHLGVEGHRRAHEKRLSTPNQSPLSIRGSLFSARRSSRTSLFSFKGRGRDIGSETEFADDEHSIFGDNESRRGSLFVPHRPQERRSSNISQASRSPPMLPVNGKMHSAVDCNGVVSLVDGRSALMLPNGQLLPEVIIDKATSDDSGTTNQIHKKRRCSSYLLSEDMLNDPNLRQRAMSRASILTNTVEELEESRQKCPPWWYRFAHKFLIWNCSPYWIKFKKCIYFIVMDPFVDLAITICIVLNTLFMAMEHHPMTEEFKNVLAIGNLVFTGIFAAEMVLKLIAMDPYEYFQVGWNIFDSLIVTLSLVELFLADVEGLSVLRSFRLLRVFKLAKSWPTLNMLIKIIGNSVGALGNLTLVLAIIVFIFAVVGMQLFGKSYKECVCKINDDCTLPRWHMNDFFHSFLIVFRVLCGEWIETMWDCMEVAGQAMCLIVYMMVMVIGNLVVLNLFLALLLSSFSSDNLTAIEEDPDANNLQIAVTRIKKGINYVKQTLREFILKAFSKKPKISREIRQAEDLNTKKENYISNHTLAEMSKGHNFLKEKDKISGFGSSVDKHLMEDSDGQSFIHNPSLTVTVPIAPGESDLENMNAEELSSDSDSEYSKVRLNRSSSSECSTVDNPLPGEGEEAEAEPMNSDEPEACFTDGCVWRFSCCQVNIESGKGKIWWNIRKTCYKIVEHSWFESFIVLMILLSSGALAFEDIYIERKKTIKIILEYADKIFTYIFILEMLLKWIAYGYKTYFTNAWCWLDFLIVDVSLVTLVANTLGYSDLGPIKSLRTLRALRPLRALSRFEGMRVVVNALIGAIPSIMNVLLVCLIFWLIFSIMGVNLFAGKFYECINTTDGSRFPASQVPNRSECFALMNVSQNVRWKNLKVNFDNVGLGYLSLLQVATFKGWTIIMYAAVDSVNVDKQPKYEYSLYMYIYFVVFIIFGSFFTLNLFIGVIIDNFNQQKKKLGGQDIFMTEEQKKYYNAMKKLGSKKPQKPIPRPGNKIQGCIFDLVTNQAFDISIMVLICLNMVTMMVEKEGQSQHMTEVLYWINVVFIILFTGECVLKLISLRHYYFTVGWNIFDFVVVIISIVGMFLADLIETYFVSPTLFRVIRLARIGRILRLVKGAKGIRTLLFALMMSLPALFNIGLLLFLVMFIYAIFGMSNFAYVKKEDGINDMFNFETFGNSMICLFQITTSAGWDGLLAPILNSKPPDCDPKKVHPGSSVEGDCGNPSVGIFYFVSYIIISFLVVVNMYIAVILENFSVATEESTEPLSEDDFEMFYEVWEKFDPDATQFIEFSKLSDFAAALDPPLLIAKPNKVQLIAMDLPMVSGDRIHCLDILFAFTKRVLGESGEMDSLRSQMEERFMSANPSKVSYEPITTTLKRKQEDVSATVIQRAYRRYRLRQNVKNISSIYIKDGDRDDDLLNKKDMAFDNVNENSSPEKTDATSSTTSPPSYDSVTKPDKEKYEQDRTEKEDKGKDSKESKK

Compound | IC50 [1] [µM] | IC50 [2] [µM] | IC50 [3] [µM] | inhibition at 4.9 µM [2] [%]
N#Cc1c(F)cccc1N1CCOc2cc(S(=O)(=O)Nc3nccs3)ccc21 [Example 187, 4-(2-Cyano-3-Fluorophenyl)-N-(Thiazol-2-Yl)-3,4-Dihydro-2H-Benzo[B][1,4]Oxazine-7-Sulfonamide] | 0.417 | 7.73 | > 10 | 
O=S(=O)(Nc1ccon1)c1ccc2c(c1)OCCN2c1ccc(C(F)(F)F)cc1Cl [Example 13, 4-(2-Chloro-4-(Trifluoromethyl)Phenyl)-N-(Isoxazol-3-Yl)-3,4-Dihydro-2H-Benzo[B][1,4]Oxazine-7-Sulfonamide] | 1.72 | 5.16 | > 10 | 
O=S(=O)(Nc1nncs1)c1ccc2c(c1)OCCN2c1ccc(C(F)(F)F)cc1Cl [Example 28, 4-(2-Chloro-4-(Trifluoromethyl)Phenyl)-N-(1,3,4-Thiadiazol-2-Yl)-3,4-Dihydro-2H-Benzo[B][1,4]Oxazine-7-Sulfonamide] | 0.656 | 2.65 | > 10 | 
O=C(Oc1ccc([N+](=O)[O-])cc1)N1CCOc2cc(S(=O)(=O)Nc3nccs3)ccc21 [Example 197, 4-nitrophenyl 7-(N-(thiazol-2-yl)sulfamoyl)-2H-benzo[b][1,4]oxazine-4(3 H)-carboxylate] | 2.53 |  | > 10 | 27.8
Cc1cc(C#N)ccc1N1CCOc2cc(S(=O)(=O)Nc3nccs3)ccc21 [Example 226, 4-(4-Cyano-2-Methylphenyl)-N-(Thiazol-2-Yl)-3,4-Dihydro-2H-Benzo[B][1,4]Oxazine-7-Sulfonamide] | 0.0365 | 0.74 | > 10 | 
O=S(=O)(Nc1ncns1)c1ccc2c(c1)OCCN2c1ccc(C(F)(F)F)cc1C1=CCNCC1 [Example 7, 4-(2-(1,2,3,6-Tetrahydropyridin-4-Yl)-4-(Trifluoromethyl)Phenyl)-N-(1,2,4-Thiadiazol-5-Yl)-3,4-Dihydro-2H-Benzo[B][1,4]Oxazine-7-Sulfonamide] | 0.0044 | 0.0237 | 0.349 | 
N#Cc1cc(Cl)ccc1N1CCOc2cc(S(=O)(=O)Nc3nccs3)ccc21 [Example 56, 4-(4-Chloro-2-Cyanophenyl)-N-(Thiazol-2-Yl)-3,4-Dihydro-2H-Benzo[B][1,4]Oxazine-7-Sulfonamide] | 0.051 | 0.265 | 4.79 | 
COc1cc(-c2cccc(F)c2)ccc1N1CCOc2cc(S(=O)(=O)Nc3nccs3)ccc21 [Example 201, 4-(3′-Fluoro-3-Methoxy-[1,1′-Biphenyl]-4-Yl)-N-(Thiazol-2-Yl)-3,4-Dihydro-2H-Benzo[B][1,4]Oxazine-7-Sulfonamide] | 0.143 | 0.773 | 4.83 | 
NCc1nsc(NS(=O)(=O)c2ccc3c(c2)OCCN3c2ccc(C(F)(F)F)cc2Cl)n1 [Example 8, N-(3-(Aminomethyl)-1,2,4-Thiadiazol-5-Yl)-4-(2-Chloro-4-(Trifluoromethyl)Phenyl)-3,4-Dihydro-2H-Benzo[B][1,4]Oxazine-7-Sulfonamide 2,2,2-Trifluoroacetate] | 7.58 | 16 | > 10 | 
O=S(=O)(Nc1nccs1)c1ccc2c(c1)OCCN2c1ccc2ncsc2c1 [Example 71, 4-(Benzo[D]Thiazol-6-Yl)-N-(Thiazol-2-Yl)-3,4-Dihydro-2H-Benzo[B][1,4]Oxazine-7-Sulfonamide 2,2,2-Trifluoroacetate] | 0.605 | 5.32 | > 10 | 
O=S(=O)(Nc1nccs1)c1ccc2c(c1)OCCN2c1ccccc1OC(F)F [Example 179, 4-(2-(Difluoromethoxy)Phenyl)-N-(Thiazol-2-Yl)-3,4-Dihydro-2H-Benzo[B][1,4]Oxazine-7-Sulfonamide 2,2,2-Trifluoroacetate] | 0.112 | 0.75 | 5.64 | 
COc1ccc(C(F)(F)F)cc1N1CCOc2cc(S(=O)(=O)Nc3nccs3)ccc21 [Example 114, 4-(2-Methoxy-5-(trifluoromethyl)phenyl)-N-(thiazol-2-yl)-3,4-dihydro-2H-benzo[b][1,4]oxazine-7-sulfonamide] | 0.0405 | 0.278 | 5.06 | 
CC1CN(c2ccc(C(F)(F)F)cc2C#N)c2ccc(S(=O)(=O)Nc3nccs3)cc2O1 (racemic) [Example 93, 4-(2-Cyano-4-(Trifluoromethyl)Phenyl)-2-Methyl-N-(Thiazol-2-Yl)-3,4-Dihydro-2H-Benzo[B][1,4]Oxazine-7-Sulfonamide] | 0.0785 | 0.566 | 1.84 | 
COc1cc(C)c(N2CCOc3cc(S(=O)(=O)Nc4nccs4)ccc32)cn1 [Example 137, 4-(6-Methoxy-4-methylpyridin-3-yl)-N-(thiazol-2-yl)-3,4-dihydro-2H-benzo[b][1,4]oxazine-7-sulfonamide] | 0.914 | 21.7 | > 10 | 
O=S(=O)(Nc1nccs1)c1ccc2c(c1)OCCN2c1ccc(Cl)cc1 [Example 40, 4-(4-Chlorophenyl)-N-(Thiazol-2-Yl)-3,4-Dihydro-2H-Benzo[B][1,4]Oxazine-7-Sulfonamide] | 0.713 | 4.32 | > 10 | 
O=S(=O)(Nc1nccs1)c1ccc2c(c1)OCCN2c1ccc(C(F)(F)F)c(Cl)c1 [Example 126, 4-(3-Chloro-4-(trifluoromethyl)phenyl)-N-(thiazol-2-yl)-3,4-dihydro-2H-benzo[b][1,4]oxazine-7-sulfonamide] | 1.24 | 14.2 | > 10 | 
O=S(=O)(Nc1cscn1)c1ccc2c(c1)OCCN2c1ccc(C(F)(F)F)cc1Cl [Example 11, 4-(2-Chloro-4-(Trifluoromethyl)Phenyl)-N-(Thiazol-4-Yl)-3,4-Dihydro-2H-Benzo[B][1,4]Oxazine-7-Sulfonamide] | 3.21 | 12.6 | > 10 | 
O=S(=O)(Nc1cc(Cl)ncn1)c1ccc2c(c1)OCCN2c1ccc(C(F)(F)F)cc1Cl [Example 9, 4-(2-Chloro-4-(Trifluoromethyl)Phenyl)-N-(6-Chloropyrimidin-4-Yl)-3,4-Dihydro-2H-Benzo[B][1,4]Oxazine-7-Sulfonamide] | 0.876 | 6.32 | > 10 | 
Cc1ccc(N2CCOc3cc(S(=O)(=O)Nc4nccs4)ccc32)cc1C#N [Example 115, 4-(3-Cyano-4-methylphenyl)-N-(thiazol-2-yl)-3,4-dihydro-2H-benzo[b][1,4]oxazine-7-sulfonamide] | 1.28 | 5.57 | 7.73 | 
COc1ccc(N2CCOc3cc(S(=O)(=O)Nc4nccs4)ccc32)cc1C#N [Example 118, 4-(3-Cyano-4-methoxyphenyl)-N-(thiazol-2-yl)-3,4-dihydro-2H-benzo[b][1,4]oxazine-7-sulfonamide] | 0.66 | 18.1 | > 10 | 
COc1cc(C#N)ccc1N1C[C@H](C)Oc2cc(S(=O)(=O)Nc3nccs3)ccc21 (single isomer, unassigned) [Example 107] | 0.0285 | 0.309 | > 10 | 
N#Cc1cccc(Cl)c1N1CCOc2cc(S(=O)(=O)Nc3nccs3)ccc21 [Example 142, 4-(2-Chloro-6-cyanophenyl)-N-(thiazol-2-yl)-3,4-dihydro-2H-benzo[b][1,4]oxazine-7-sulfonamide] | 2.21 |  | > 10 | 33.9
O=S(=O)(Nc1ccncn1)c1ccc2c(c1)OCCN2c1ccc(C(F)(F)F)cc1C1=CCNCC1 [Example 45, N-(Pyrimidin-4-Yl)-4-(2-(1,2,3,6-Tetrahydropyridin-4-Yl)-4-(Trifluoromethyl)Phenyl)-3,4-Dihydro-2H-Benzo[B][1,4]Oxazine-7-Sulfonamide 2,2,2-Trifluoroacetate] | 0.0062 | 0.135 | 1.2 | 
N#Cc1ccc(Cl)cc1N1CCOc2cc(S(=O)(=O)Nc3nccs3)ccc21 [Example 192, 4-(5-Chloro-2-Cyanophenyl)-N-(Thiazol-2-Yl)-3,4-Dihydro-2H-Benzo[B][1,4]Oxazine-7-Sulfonamide] | 0.0525 | 0.769 | 1.61 | 
COc1cc(C#N)ccc1CN1CCOc2cc(S(=O)(=O)Nc3nccs3)ccc21 [Example 219, 4-(4-Cyano-2-Methoxybenzyl)-N-(Thiazol-2-Yl)-3,4-Dihydro-2H-Benzo[B][1,4]Oxazine-7-Sulfonamide] | 5.19 |  | > 10 | 26.2
O=S(=O)(Nc1ncns1)c1ccc2c(c1)OCCN2c1ccc(C(F)(F)F)cc1-c1ccncc1 [Example 26, 4-(2-(Pyridin-4-Yl)-4-(Trifluoromethyl)Phenyl)-N-(1,2,4-Thiadiazol-5-Yl)-3,4-Dihydro-2H-Benzo[B][1,4]Oxazine-7-Sulfonamide] | 0.0105 | 0.102 | 0.306 | 
